Laboratory results taken from ChEMBL document CHEMBL1201862, “PubChem BioAssay data set” (2004).
The source made the active and inactive calls.

Columns and labels:
[1] = biological target: Ephrin type-A receptor 4 (Mus musculus, UniProt Q03137); assay: EphA4 ligand-binding antagonists – biochemical, colorimetric, mouse EphA4, primary screen (AID 689); format: functional
[2] = biological target: Prothrombin (Homo sapiens, UniProt P00734); assay: Thrombin 1536 HTS Dose Response Confirmation. [Related pubchem assays: 1046 (Thrombin 1536 HTS; hits were confirmed in this assay)]; format: functional
[3] = cells; format: functional, cell-based
[4] = biological target: T1, Trace amine-associated receptor 1 (Homo sapiens, UniProt Q96RJ0); assay: Counterscreen for agonists of the human trace amine associated receptor 1 (hTAAR1): Fluorescence-based cell-based high throughput dose response assay to identify hTAAR1 agonist that also desensitize TAAR1 receptor response.; format: functional
T1 sequence (Q96RJ0 whole entry): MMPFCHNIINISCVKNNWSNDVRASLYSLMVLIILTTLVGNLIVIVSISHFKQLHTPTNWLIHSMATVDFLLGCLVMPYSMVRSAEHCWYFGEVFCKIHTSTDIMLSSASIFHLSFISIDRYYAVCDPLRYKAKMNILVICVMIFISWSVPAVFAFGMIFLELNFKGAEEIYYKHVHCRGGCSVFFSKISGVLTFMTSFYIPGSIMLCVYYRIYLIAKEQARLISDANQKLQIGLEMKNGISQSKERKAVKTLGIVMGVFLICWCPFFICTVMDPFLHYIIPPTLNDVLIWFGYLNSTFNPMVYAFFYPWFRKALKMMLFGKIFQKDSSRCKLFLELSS

[5] = biological target: T1, Trace amine-associated receptor 1; assay: Fluorescence-based cell-based high throughput dose response assay to identify agonists of the human trace amine associated receptor 1 (TAAR1).; format: functional
[6] = cells; format: functional, cell-based; remark: listed apart in the source
[7] = Counterscreen for inhibitors of Trypanosoma brucei methionyl tRNA synthetase (MetRS): Luminescence-based cell-based high throughput dose response assay to identify compounds that are cytotoxic to Jurkat human T lymphocyte cells.; format: functional
[8] = biological target: T2, Methionyl-tRNA synthetase, putative (Trypanosoma brucei brucei, UniProt Q38C91); format: functional, Trypanosoma brucei brucei strain 927/4 GUTat10.1;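 note: Read-out by fluorescence polarization, run as a confirmatory high-throughput counterscreen; potency of MetRS inhibitors measured by reduced AMP formation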
T2 sequence (Q38C91 whole entry): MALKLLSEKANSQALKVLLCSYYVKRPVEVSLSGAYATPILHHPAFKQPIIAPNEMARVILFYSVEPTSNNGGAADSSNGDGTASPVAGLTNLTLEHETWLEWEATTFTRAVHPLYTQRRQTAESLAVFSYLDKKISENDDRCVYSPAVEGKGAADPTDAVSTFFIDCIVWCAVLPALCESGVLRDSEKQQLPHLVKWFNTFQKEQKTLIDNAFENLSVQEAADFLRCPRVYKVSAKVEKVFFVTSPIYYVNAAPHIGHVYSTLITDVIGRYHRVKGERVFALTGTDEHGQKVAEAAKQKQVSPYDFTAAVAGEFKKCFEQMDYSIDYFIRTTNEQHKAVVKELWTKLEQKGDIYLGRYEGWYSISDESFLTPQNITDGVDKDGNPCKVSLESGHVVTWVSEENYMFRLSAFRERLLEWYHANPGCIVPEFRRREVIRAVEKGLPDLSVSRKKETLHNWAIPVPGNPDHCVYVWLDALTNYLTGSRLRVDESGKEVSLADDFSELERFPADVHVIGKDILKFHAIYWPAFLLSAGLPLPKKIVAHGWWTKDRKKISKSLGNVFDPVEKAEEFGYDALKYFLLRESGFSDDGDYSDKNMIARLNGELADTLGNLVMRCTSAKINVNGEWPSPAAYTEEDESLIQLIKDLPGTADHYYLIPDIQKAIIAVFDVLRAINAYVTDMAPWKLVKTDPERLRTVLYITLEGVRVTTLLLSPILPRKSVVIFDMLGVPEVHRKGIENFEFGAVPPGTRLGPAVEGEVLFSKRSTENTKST

[9] = off-target signal loss in HeLa-CEM21 co-culture – HeLa F-luc CTL cells, cherry-picked, counter-screen for HIV-1 Env fusion inhibitor project, dose response (AID 652040); format: functional, cell-based;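 note: potency for signal decrease marking cytotoxic or nonspecific inhibition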
[10] = HIV-1 AD8 envelope cell-cell fusion blockers – cherry-pick, dose response (AID 652062); format: functional, cell-based;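 note: luciferase signal from cell-cell fusion driven by HIV-1 clade B AD8 Env; potency is for inhibitors of fusion seen as a drop in luminescence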
[11] = blockers of HIV-1 ZM109 envelope-driven cell-cell fusion – HeLa effector, CEM target cells, luciferase, cherry-pick, dose response (AID 652058); format: functional, cell-based;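 note: luciferase signal from HIV-1 Env mediated cell-cell fusion of effector and target cells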
[12] = viability loss in CEM21 cells – cell-based, CellTiter-Glo luminescence, cherry-picked, cytotoxicity control for viral fusion inhibitor project, dose response (AID 652042); format: functional;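 note: potency for signal decrease meaning cytotoxicity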
[13] = blockers of HIV-1 envelope-mediated cell-cell fusion – cherry-pick, dose response (AID 652057); format: functional, cell-based
[14] = biological target: T3, Long-chain-fatty-acid--AMP ligase FadD28 (Mycobacterium tuberculosis, UniProt P9WQ59); assay: Fluorescence polarization aasay to screen for inhibitors that compete for the binding of FadD28 to a bisubstrate Measured in Biochemical System Using Plate Reader - 2147-01_Inhibitor_Dose_CherryPick_Activity.; format: functional, Mycobacterium tuberculosis H37Rv
T3 sequence (P9WQ59 whole entry): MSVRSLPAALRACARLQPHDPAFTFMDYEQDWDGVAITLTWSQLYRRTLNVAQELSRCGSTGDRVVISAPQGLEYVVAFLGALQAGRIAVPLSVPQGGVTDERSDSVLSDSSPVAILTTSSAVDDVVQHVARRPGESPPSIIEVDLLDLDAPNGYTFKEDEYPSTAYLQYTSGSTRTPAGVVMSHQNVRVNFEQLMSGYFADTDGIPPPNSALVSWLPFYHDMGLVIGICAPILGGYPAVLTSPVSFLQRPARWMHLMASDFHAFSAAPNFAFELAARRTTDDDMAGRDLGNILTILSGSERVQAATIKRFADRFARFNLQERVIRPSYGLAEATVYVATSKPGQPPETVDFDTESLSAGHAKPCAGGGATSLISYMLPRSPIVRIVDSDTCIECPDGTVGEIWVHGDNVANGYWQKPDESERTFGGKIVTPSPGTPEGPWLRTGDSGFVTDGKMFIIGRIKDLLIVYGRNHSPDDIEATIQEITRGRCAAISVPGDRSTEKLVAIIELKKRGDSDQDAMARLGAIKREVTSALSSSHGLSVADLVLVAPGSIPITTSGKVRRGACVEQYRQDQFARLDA

Ephrin type-A receptor 4, sequence (Q03137 whole entry): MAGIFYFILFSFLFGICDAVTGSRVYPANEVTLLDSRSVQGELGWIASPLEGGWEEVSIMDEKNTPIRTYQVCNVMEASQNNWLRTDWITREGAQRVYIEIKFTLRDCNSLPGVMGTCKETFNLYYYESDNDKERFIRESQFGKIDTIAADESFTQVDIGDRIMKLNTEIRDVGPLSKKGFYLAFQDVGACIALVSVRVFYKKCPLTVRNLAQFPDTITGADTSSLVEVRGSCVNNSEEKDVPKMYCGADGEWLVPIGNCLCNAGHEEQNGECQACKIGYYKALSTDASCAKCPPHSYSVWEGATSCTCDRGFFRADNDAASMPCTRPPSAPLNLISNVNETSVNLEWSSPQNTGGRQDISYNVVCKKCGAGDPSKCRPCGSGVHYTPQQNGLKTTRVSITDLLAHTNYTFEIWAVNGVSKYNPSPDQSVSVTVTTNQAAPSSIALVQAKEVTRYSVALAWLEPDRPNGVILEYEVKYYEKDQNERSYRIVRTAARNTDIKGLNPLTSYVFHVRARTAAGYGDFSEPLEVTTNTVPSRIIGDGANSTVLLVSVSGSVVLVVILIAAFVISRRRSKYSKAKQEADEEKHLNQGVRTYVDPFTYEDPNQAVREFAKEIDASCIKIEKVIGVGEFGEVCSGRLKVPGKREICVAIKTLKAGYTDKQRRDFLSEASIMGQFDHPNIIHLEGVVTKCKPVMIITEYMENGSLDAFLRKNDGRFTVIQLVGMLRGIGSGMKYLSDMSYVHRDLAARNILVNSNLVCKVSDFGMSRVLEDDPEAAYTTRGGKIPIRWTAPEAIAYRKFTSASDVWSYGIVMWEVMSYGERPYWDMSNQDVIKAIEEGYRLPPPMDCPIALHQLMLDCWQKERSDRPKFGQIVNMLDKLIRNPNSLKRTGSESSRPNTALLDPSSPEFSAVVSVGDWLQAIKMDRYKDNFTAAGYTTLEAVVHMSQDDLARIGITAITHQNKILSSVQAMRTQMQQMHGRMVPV

In the case of `CCN(CC)C(=O)CSc1nc2cc(OC)c(OC)cc2c(=O)n1Cc1ccc(Cl)cc1`, the IC50 [1] is reported as > 100 µM (not active).

In the case of `Nc1nc(-c2ccccc2)nn1C(=O)Cc1ccccc1`, the IC50 [2] is reported as 1.51 µM (active).

For `Cc1ccc(SCC(=O)Nc2ccc(N3CCN(C)CC3)c(F)c2)c(C)c1`, the IC50 [3] was > 29.9 µM (inactive), the IC50 [4] was 5.55 µM (active) and the EC50 [5] was 3.5 µM (active). For the same compound, the EC50 [6] was > 29.9 µM (inactive).

For `O=C(Nc1cccnc1)c1ccc(COc2cc(Cl)ccc2Cl)o1`, the IC50 [7] was 12.8 µM (inactive) and the IC50 [8] was 23.5 µM (inactive).

With `O=S(=O)(NCC(Nc1ccccc1)c1ccccc1)c1ccc(Cl)cc1` (configuration not stated) the AC50 [9] was 10.4 µM (active), the AC50 [10] was 34.8 µM (active) and the AC50 [11] was 2.15 µM (active). The AC50 [12] was 19 µM (active) and the AC50 [13] was 2.48 µM (active).

With `CCOC(=O)C(NCCc1ccccc1F)(NC(C)=O)C(F)(F)F` (configuration not stated) the IC50 [3] was > 29.9 µM (inactive), the IC50 [4] was > 29.9 µM (inactive) and the EC50 [5] was 1.84 µM (active). The EC50 [6] was > 29.9 µM (inactive).

In the case of `C[C@H](NC(=O)c1ccccc1)C(=O)OCC(=O)c1c[nH]c2ccccc12`, the IC50 [3] is reported as > 29.9 µM (inactive), the IC50 [4] is reported as 7.13 µM (active) and the EC50 [5] is reported as 3.28 µM (active). For the same compound, the EC50 [6] was > 29.9 µM (inactive).

For `Cc1cc(C)c(CN2CCN(C(=O)Cn3ccc(NC(=O)OCc4ccccc4)nc3=O)CC2)c(C)c1`, the AC50 [9] was > 70 µM (inactive), the AC50 [10] was 4.37 µM (active) and the AC50 [12] was 26.8 µM (active).

In the case of `Cc1csc(NC(=O)CSc2nnc(NC(=O)NC(C)(C)C)s2)n1`, the AC50 [14] is reported as > 100 µM (inactive).

For `CCC1=NN(C(=O)c2ccccc2Br)C(O)(c2ccc(Br)cc2)C1` (configuration not stated), the AC50 [14] was > 100 µM (inactive).

For `Oc1nc2ccc(Cl)cc2c(-c2ccccc2)c1N1CCOCC1`, the IC50 [2] was > 50 µM (not active).
